Literature values as cited in article PMC12371493 (ACS Bio & Med Chem Au, 2025).

Tested on: MC38-hPD-L1 tumor
Settings: dosed SubQ; ref not given

## CO[C@H]1[C@H]2OP(=O)(O)OC[C@@]34C[C@@H]3[C@@H](n3cnc5c(N)ncnc53)[C@H](O)[C@@H]4O[P@](=O)(S)OC[C@H]1O[C@H]2n1cnc2c(=O)[nH]c(N)nc21 [ALG-031048]
  reduction of MC38-hPD-L1 tumor: could reduce MC38-hPD-L1tumor, albeit modestly
